We go through two compounds from patent US5637596A, “Azabicycloalkyl derivatives of imidazo[1,5-a]indol-3-one and process for their preparation” (Pharmacia S.p.A., priority 1994, dated 1997).

The IC50 is the concentration needed to halve the response being measured. Usually ED50 stands for the midpoint of the dose-response relation. Low readings indicate greater potency, high ones weaker potency. A word on the % inhibition: it is the percentage by which the read-out fell short of the control. A lower % inhibition goes with a response near the control.

One assay deals with T1, serotonin 5HT3 receptors (Rattus norvegicus, UniProt P35563).
T1 construct: assessed for instance in rat entorhinal cortex using a selective radioligand; from tissue; host or cells: rat entorhinal cortex
T1 sequence (P35563 24-483): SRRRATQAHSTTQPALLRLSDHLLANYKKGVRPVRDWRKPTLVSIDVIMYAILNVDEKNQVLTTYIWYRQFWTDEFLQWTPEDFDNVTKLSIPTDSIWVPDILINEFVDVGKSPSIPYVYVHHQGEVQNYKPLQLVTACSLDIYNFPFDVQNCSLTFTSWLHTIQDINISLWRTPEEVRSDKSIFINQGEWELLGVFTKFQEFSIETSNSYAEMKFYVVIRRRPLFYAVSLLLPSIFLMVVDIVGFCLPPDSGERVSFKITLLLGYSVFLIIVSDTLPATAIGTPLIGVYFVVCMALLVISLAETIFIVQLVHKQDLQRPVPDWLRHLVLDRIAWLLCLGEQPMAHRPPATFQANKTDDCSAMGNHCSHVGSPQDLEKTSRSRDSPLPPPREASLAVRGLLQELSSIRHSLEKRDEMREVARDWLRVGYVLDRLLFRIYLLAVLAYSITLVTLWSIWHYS
As to the kind of experiment: Affinity for serotonin 5HT3 receptors in rat entorhinal cortex using radioligand 3H-BRL 43694. The assay is classed as binding. As to the method: The affinity for serotonin 5HT3 receptors was assessed for instance in rat entorhinal cortex using a selective radioligand ^3 H-BRL 43694 as described by Nelson and Thomas (1989).
Nelson D. R. and Thomas D. R., [^3 H]-BRL 43694 (Granisetron), a specific ligand for 5HT3 binding sites in rat brain cortical membranes, Biochem. Pharmac., 38, 1693-1695, 1989.
The following Table II summarized the data obtained in this in-vitro test for two representative compounds of the invention.
5-HT3 binding affinity for rat enthiorinal cortex

A further assay concerns the target T2, 5HT3 receptor (Rattus norvegicus, UniProt P35563).
T2 construct: chemoreflex evoked by 5HT in the anesthetized rat; from tissue; host or cells: anesthetized rat, whole animal (endogenous receptor)
T2 sequence (P35563 24-483): T1 sequence (P35563 24-483)
As to the kind of experiment: Inhibition of the von Bezold-Jarisch chemoreflex evoked by 5-HT in the anesthetized rat (in-vivo 5HT3 antagonist activity). To be noted: von Bezold-Jarisch reflex elicited by 5-HT (30 μg/kg i.v.); for ED50: iv, limits printed on the next line; for % inhibition: dose 100 μg/kg i.v., N = 6, mean. Here is the method:
Pharmacol. 326, 36-44 (1984).
The following Table I reports in-vivo 5HT3 antagonist activity data obtained in this test for two representative compounds of the invention.
Inhibition of the von Bezold-Jarisch reflex
elicited by 5-HT (30 μg/kg i.v.) by FCE
compounds in the anesthetized rat. Values are
mean ± in S.E.M. from N animals

`Cl.O=C1N(C2CN3CCC2CC3)Cc2cc3ccccc3n21` (stereo not drawn) [FCE 28841, 2-(1-azabicyclo[2.2.2]oct-3-yl)-1,2-dihydro-imidazo[1,5-a]indol-3-one hydrochloride] showed an IC50 at serotonin 5HT3 receptors of 7 nM. In addition, on 5HT3 receptor, the 50% effect level (ED50) was put at a dose of 0.0218 mg/kg and the “% inhibition” value was 90.71%.

At serotonin 5HT3 receptors, `CN1C2CCC1CC(N1Cc3cc4ccccc4n3C1=O)C2` (stereo not drawn) [FCE 28837, (endo)-2-(8-methyl-8-azabicyclo[3.2.1]oct-3-yl)-1,2-dihydro-imidazo[1,5-a]indol-3-one] came in with an IC50 of 10 nM. Besides, at 5HT3 receptor, it took a dose of 0.0118 mg/kg to reach the 50% effect level (ED50) and the “% inhibition” value is 88.5%.
